Row | Compound | melting point [°C]
1 | Fc1ccc(-c2cc(C(F)(F)F)n3ncc(-c4cccnc4)c3n2)cc1Cl [Example 4.6, 5-(3-Chloro-4-fluoro-phenyl)-3-pyridin-3-yl-7-trifluoromethyl-pyrazolo[1,5-a]pyrimidine] | 190
2 | Cc1cc(-c2cnn3c(C(F)(F)F)cc(-c4ccc(C(F)(F)F)c(C)c4)nc23)cc(C)n1 [Example 4.38, 5-(3-Methyl-4-trifluoromethyl-phenyl)-3-(2,6-dimethyl-pyridin-4-yl)-7-trifluoromethyl-pyrazolo[1,5-a]pyrimidine] | 253
3 | FC(F)(F)c1ccc(-c2cc(C(F)(F)F)n3ncc(-c4ccncc4)c3n2)cc1C(F)(F)F [Example 4.53, 5-(3,4-Bis-trifluoromethyl-phenyl)-3-pyridin-4-yl-7-trifluoromethyl-pyrazolo[1,5-a]pyrimidine] | 209
4 | Cc1cc(-c2cnn3c(C(F)(F)F)cc(-c4ccc(Cl)c(C)c4)nc23)ccn1 [Example 4.30, 5-(4-Chloro-3-methyl-phenyl)-3-(2-methyl-pyridin-4-yl)-7-trifluoromethyl-pyrazolo[1,5-a]pyrimidine] | 240
5 | FC(F)(F)c1ccc(-c2cc(C(F)(F)F)n3cnc(-c4ccncc4)c3n2)cc1 [Example 8.14, 8-Pyridin-4-yl-4-trifluoromethyl-2-(4-trifluoromethyl-phenyl)-imidazo[1,5-a]pyrimidine] | 240
6 | Cc1cc(-c2ncn3c(C(F)(F)F)cc(-c4ccc(C(F)(F)F)c(OCC(F)(F)F)c4)nc23)ccn1 [Example 8.33, 8-(2-Methyl-pyridin-4-yl)-2-[3-(2,2,2-trifluoro-ethoxy)-4-trifluoromethyl-phenyl]-4-trifluoromethyl-imidazo[1,5-a]pyrimidine] | 189
7 | Cc1cc(-c2cnn3c(C(F)(F)F)cc(-c4ccc(Cl)c(Cl)c4)nc23)ccn1 [Example 4.32, 5-(3,4-Dichloro-phenyl)-3-(2-methyl-pyridin-4-yl)-7-trifluoromethyl-pyrazolo[1,5-a]pyrimidine] | 275
8 | FC(F)(F)c1cc(-c2ccc(Cl)c(Cl)c2)nc2c(-c3ccncc3)cnn12 [Example 4.10, 5-(3,4-Dichloro-phenyl)-3-pyridin-4-yl-7-trifluoromethyl-pyrazolo[1,5-a]pyrimidine] | 260
9 | CCOc1cc(-c2cc(C(F)(F)F)n3cnc(-c4ccnc(C)c4)c3n2)ccc1C(F)(F)F [Example 8.31, 2-(3-Ethoxy-4-trifluoromethyl-phenyl)-8-(2-methyl-pyridin-4-yl)-4-trifluoromethyl-imidazo[1,5-a]pyrimidine] | 177
10 | Cc1cc(-c2cnn3c(C(F)(F)F)cc(-c4ccc(Cl)c(Cl)c4)nc23)cc(C)n1 [Example 4.22, 5-(3,4-Dichloro-phenyl)-3-(2,6-dimethyl-pyridin-4-yl)-7-trifluoromethyl-pyrazolo[1,5-a]pyrimidine] | 281
11 | Cc1nn2c(C(F)(F)F)cc(-c3ccc(F)c(Cl)c3)nc2c1C#N [Example 2.4, 5-(3-Chloro-4-fluoro-phenyl)-2-methyl-7-trifluoromethyl-pyrazolo[1,5-a]pyrimidine-3-carbonitrile] | 196
12 | Cc1cc(-c2cnn3c(C(F)(F)F)cc(-c4ccc(C(F)(F)F)c(F)c4)nc23)cc(C)n1 [Example 4.25, 5-(3-Fluoro-4-trifluoromethyl-phenyl)-3-(2,6-dimethyl-pyridin-4-yl)-7-trifluoromethyl-pyrazolo[1,5-a]pyrimidine] | 245
13 | Cc1cc(-c2cnn3c(C(F)F)cc(-c4ccc(C(F)(F)F)cc4)nc23)ccn1 [Example 9.2, 7-Difluoromethyl-3-(2-methyl-pyridin-4-yl)-5-(4-trifluoromethyl-phenyl)-pyrazolo[1,5-a]pyrimidine] | 213
14 | Fc1cc(-c2cc(C(F)(F)F)n3ncc(-c4cccnc4)c3n2)ccc1C(F)(F)F [Example 4.18, 5-(3-Fluoro-4-trifluoromethyl-phenyl)-3-pyridin-3-yl-7-trifluoromethyl-pyrazolo[1,5-a]pyrimidine] | 162
15 | Cc1nn2c(C(F)(F)F)cc(-c3ccc(Cl)cc3)nc2c1C#N [Example 2.3, 5-(4-Chloro-phenyl)-2-methyl-7-trifluoromethyl-pyrazolo[1,5-a]pyrimidine-3-carbonitrile] | 238
16 | Cc1cc(-c2cnn3c(C(F)(F)F)cc(-c4ccc(Cl)cc4)nc23)ccn1 [Example 4.29, 5-(4-Chloro-phenyl)-3-(2-methyl-pyridin-4-yl)-7-trifluoromethyl-pyrazolo[1,5-a]pyrimidine] | 220
17 | Cc1cc(-c2cnn3c(C(F)(F)F)cc(-c4ccc(Cl)cc4)nc23)cc(C)n1 [Example 4.19, 5-(4-Chloro-phenyl)-3-(2,6-dimethyl-pyridin-4-yl)-7-trifluoromethyl-pyrazolo[1,5-a]pyrimidine] | 256
18 | N#Cc1cnn2c(C(F)(F)F)cc(-c3ccccn3)nc12 [Example 1.20, 5-Pyridin-2-yl-7-trifluoromethyl-pyrazolo[1,5-a]pyrimidine-3-carbonitrile] | 208

Row | Compound | melting point [°C]
19 | CCOc1cc(-c2cc(C(F)(F)F)n3ncc(-c4ccnc(C)c4)c3n2)ccc1C(F)(F)F [Example 4.49, 5-(3-Ethoxy-4-trifluoromethyl-phenyl)-3-(2-methyl-pyridin-4-yl)-7-trifluoromethyl-pyrazolo[1,5-a]pyrimidine] | 226
20 | Cc1cc(-c2cnn3c(C(F)(F)F)cc(-c4ccc(OCC(F)(F)F)c(C(F)(F)F)c4)nc23)ccn1 [Example 4.46, 5-[4-(2,2,2-Trifluoroethoxy)-3-trifluoromethyl-phenyl]-3-(2-methyl-pyridin-4-yl)-7-trifluoromethyl-pyrazolo[1,5-a]pyrimidine] | 210
21 | FC(F)(F)c1cc(-c2ccc(Cl)cc2)nc2c(-c3cccnc3)cnn12 [Example 4.1, 5-(4-Chloro-phenyl)-3-pyridin-3-yl-7-trifluoromethyl-pyrazolo[1,5-a]pyrimidine] | 188
22 | Cc1ccc(-c2cc(C(F)(F)F)n3ncc(C#N)c3n2)cc1 [Example 1.2, 5-(4-Methyl-phenyl)-7-trifluoromethyl-pyrazolo[1,5-a]pyrimidine-3-carbonitrile] | 121
23 | Cc1cc(-c2cnn3c(C(F)(F)F)cc(-c4ccc(C(F)(F)F)c(C)c4)nc23)ccn1 [Example 4.39, 5-(3-Methyl-4-trifluoromethyl-phenyl)-3-(2-methyl-pyridin-4-yl)-7-trifluoromethyl-pyrazolo[1,5-a]pyrimidine] | 237
24 | CCOc1ccc(-c2cc(C(F)(F)F)n3ncc(-c4ccncc4)c3n2)cc1C(F)(F)F [Example 4.41, 5-(4-Ethoxy-3-trifluoromethyl-phenyl)-3-pyridin-4-yl-7-trifluoromethyl-pyrazolo[1,5-a]pyrimidine] | 233
25 | Cc1cc(-c2cnn3c(C(F)F)cc(-c4ccc(C(F)(F)F)c(C)c4)nc23)ccn1 [Example 9.4, 7-Difluoromethyl-3-(2-methyl-pyridin-4-yl)-5-(3-methyl-4-trifluoromethyl-phenyl)-pyrazolo[1,5-a]pyrimidine] | 221
26 | Cc1cc(-c2cnn3c(C(F)(F)F)cc(-c4ccc(C(F)(F)F)cc4)nc23)cc(C)n1 [Example 4.23, 5-(4-Trifluoromethyl-phenyl)-3-(2,6-dimethyl-pyridin-4-yl)-7-trifluoromethyl-pyrazolo[1,5-a]pyrimidine] | 257
27 | COc1ccc(-c2cc(C(F)(F)F)n3cnc(C#N)c3n2)cc1 [Example 5.5, 2-(4-Methoxy-phenyl)-4-trifluoromethyl-imidazo[1,5-a]pyrimidine-8-carbonitrile] | 192
28 | FC(F)(F)c1cc(-c2ccc(Cl)cc2)nc2c(-c3ccncc3)cnn12 [Example 4.2, 5-(4-Chloro-phenyl)-3-pyridin-4-yl-7-trifluoromethyl-pyrazolo[1,5-a]pyrimidine] | 274
29 | Cc1cc(-c2ncn3c(C(F)(F)F)cc(-c4ccc(Cl)cc4)nc23)ccn1 [Example 8.20, 2-(4-Chloro-phenyl)-8-(2-methyl-pyridin-4-yl)-4-trifluoromethyl-imidazo[1,5-a]pyrimidine] | 232
30 | Cc1cc(-c2cnn3c(C(F)(F)F)cc(-c4ccc(C)c(C(F)(F)F)c4)nc23)cc(C)n1 [Example 4.28, 5-(4-Methyl-3-trifluoromethyl-phenyl)-3-(2,6-dimethyl-pyridin-4-yl)-7-trifluoromethyl-pyrazolo[1,5-a]pyrimidine] | 258
31 | FC(F)(F)c1ccc(-c2cc(C(F)(F)F)n3ncc(-c4ccncc4)c3n2)cc1 [Example 4.15, 5-(4-Trifluoromethyl-phenyl)-3-pyridin-4-yl-7-trifluoromethyl-pyrazolo[1,5-a]pyrimidine] | 261
32 | Fc1ccc(-c2cc(C(F)(F)F)n3ncc(-c4ccccn4)c3n2)cc1Cl [Example 4.8, 5-(3-Chloro-4-fluoro-phenyl)-3-pyridin-2-yl-7-trifluoromethyl-pyrazolo[1,5-a]pyrimidine] | 197
33 | Cc1cc(-c2cc(C(F)(F)F)n3ncc(-c4ccccn4)c3n2)ccc1Cl [Example 4.5, 5-(4-Chloro-3-methyl-phenyl)-3-pyridin-2-yl-7-trifluoromethyl-pyrazolo[1,5-a]pyrimidine] | 183
34 | Cc1cc(-c2cnn3c(C(F)(F)F)cc(-c4cccc(C(F)(F)F)c4)nc23)ccn1 [Example 4.34, 5-(3-Trifluoromethyl-phenyl)-3-(2-methyl-pyridin-4-yl)-7-trifluoromethyl-pyrazolo[1,5-a]pyrimidine] | 232
35 | N#CCc1nn2c(C(F)(F)F)cc(-c3ccc(F)c(Cl)c3)nc2c1C#N [Example 3.1, 5-(3-Chloro-4-fluoro-phenyl)-2-cyanomethyl-7-trifluoromethyl-pyrazolo[1,5-a]pyrimidine-3-carbonitrile] | 185
36 | Cc1cc(-c2ncn3c(C(F)(F)F)cc(-c4ccc(F)c(Cl)c4)nc23)ccn1 [Example 8.22, 2-(3-Chloro-4-fluoro-phenyl)-8-(2-methyl-pyridin-4-yl)-4-trifluoromethyl-imidazo[1,5-a]pyrimidine] | 255
